Consider 1 compound from patent publication US12721832B2, “Anti-senescence plant polyphenol drug downregulating senescence-related secretory phenotype and use thereof” (BYHEALTH CO., LTD., priority 2021, dated 2026).

One data set has as its system aged C57BL/6 mice. Briefly: Physical ability test in aged mice. The format is in vivo. The following applies: males and females, PCC1 biweekly. As for the experimental part: N=5. ^, P>0.05; **, P<0.01.
N=5/group. , P>0.05; ***, P<0.001.
All testing began on day 5 after the last placebo or drug treatment. Maximum walking speed was assessed using the accelerated RotaRod System (TSE System, Chesterfiled, Mo.). The mice were trained on the RotaRod for 3 days at speeds of 4, 6 and 8 r.p.m, lasted for 200 seconds on the 1st, 2nd and 3rd days. On the test day, the mice were placed on the RotaRod, and the test was performed starting at a speed of 4 r.p.m. The rotation speed was accelerated from 4 to 40 r.p.m at intervals of 5 minutes. When the mice fell off the RotaRod, the speed was recorded. The final results were averaged from 3 or 4 trials and normalized to baseline speed. […]
Forelimb grip strength (N) was measured using a Grip Strength Meter (Columbus Instruments, Columbus, Ohio), and the results were averaged from more than 10 trials. […] The mice were only allowed to grasp the wire with their forelimbs, and the hang time was normalized to body weight and expressed as hang duration (sec) x body weight (g). […] Their daily activity and food intake were monitored for 24 h (12 hours of light and 12 hours of dark) by a Comprehensive Laboratory Animal Monitoring System (CLAMS). […] The distance was recorded after the test, and the total work (KJ) was calculated with the following formula: mass (kg)×g (9.8 m/s^2)×distance (m)×sin) (5°).

For a further data set, the system named is PSC27 cells. Description: Population doubling test of PSC27. The format is cell-based, human. As for the experimental part: The cells were damaged by BLEO at passage 10 (p10), and then PCC1 was added to the medium at day 8. The effect of PCC1 on cell proliferation potential is determined by comparative analysis of the population doubling (PD) of CTRL group, BLEO group, PCC1 group and BLEO/PCC1 group. ^, P>0.05; ***, P<0.001.

Data set [1] deals with PC3/PSC27 xenograft tumors. Briefly: PC3/PSC27 xenograft tumor terminal volume in NOD/SCID mice. The format is in vivo. To be noted: end of 8th week. The text has this:
Every two weeks was a dosing cycle, and MIT (mitoxantrone) was intraperitoneally administered to the mice on the first day of the 3rd/5th/7th weeks. From the first day of the 5th week, the mice were intraperitoneally administrated with PCC1, once a week. After the 8-week course of treatment, the mice were dissected for pathological identification and expression analysis.
Chemotherapeutic drug MIT alone or together with anti-senescence drug PCC1 was used to administer mice, and after the 8th week, the tumor size of each group was compared and analyzed.
All experimental mouse experiments were carried out in strict accordance with the relevant regulations of the Institutional Animal Care and Use Committee (IACUC), Shanghai Institutes for Biological Sciences, Chinese Academy of Sciences. Immunodeficient mice (NOD-SCID mice, ICR) (body weight about 25 g) aged 6-8 weeks were used for animal experiments related to the present patent. Stromal cells PSC27 and epithelial cells PC3 were mixed at a predetermined ratio of 1:4, and each graft contained 1.25×10^6 cells for tissue remodeling. The xenograft tumors were implanted into mice by subcutaneous transplantation, and the animals were euthanized 8 weeks after the end of the transplantation surgery. Tumor volume was calculated according to the following formula: V=(π/6)×[…] (V, volume; l, length; w, width).
In a preclinical treatment trial, subcutaneously transplanted mice were fed with a standard experimental diet, after 2 weeks chemotherapy drugs mitoxantrone (MIT, dose: 0.2 mg/kg) and/or procyanidin C1 (PCC1) (500 μl, dose: 10 mg/kg) via intraperitoneal administration. The time points were: the former was administrated on the first day of the 3rd, 5th and 7th weeks, and the latter was administrated on the first day of the 5th and 7th weeks. A total of 3 cycles of MIT administration were carried out throughout the course of treatment, and each cycle lasted for 2 weeks. After the course of treatment, mouse tumors were harvested for volume measurement and histological analysis. Each mouse cumulatively received 0.6 mg/kg body weight of MIT and […] body weight of PCC1. In order to cause systemic expression of SASP factor induced by chemotherapy, MIT was administered to mice through […] according to the above steps and sequence, but the dose was reduced to 0.1 mg/kg body weight/each time (the cumulative dose of MIT received in the whole course of treatment was 0.3 mg/kg body weight) to reduce drug-related toxicity. The chemotherapy experiment ended at the end of the 8th week, and the mice were dissected immediately after sacrifice, and the xenograft tumors were collected and used for pathological system analysis.

Where [2] appears, read: PCC1 administered to mice treated with MIT.

Take `Oc1cc(O)c2c(c1)O[C@H](c1ccc(O)c(O)c1)[C@H](O)[C@H]2c1c(O)cc(O)c2c1O[C@H](c1ccc(O)c(O)c1)[C@H](O)[C@H]2c1c(O)cc(O)c2c1O[C@H](c1ccc(O)c(O)c1)[C@H](O)C2` [PCC1, procyanidin C1]: in the data set with aged C57BL/6 mice, the “physical function during the last 2 months of life vs vehicle” value is “did not show a significant decrease”. Further, the “population doubling (PD) ability” value in the data set with PSC27 cells (BLEO and PCC1 combined treatment vs BLEO group) is “significantly increased”. In addition, the “effect on PD of proliferating cells” value in the data set with PSC27 cells (PCC1 alone, proliferating cells) was “did not appear to affect”. In data set [1] (setting [2]), the “reduction in tumor volume compared with MIT” value was found to be 55.2% and the “reduction in tumor volume compared with placebo treatment” value was determined as 74.9%. Besides, the “reduction in tumor size compared to placebo” value in data set [1] (single agent, i.p.) is “did not cause tumor shrinkage”.
